Reference: patent publication US8268838B2, “Substituted purinyl-pyrazole derivatives and their use as potassium channel modulators” (Neurosearch A/S, priority 2008, dated 2012)

Molecular target: T1, hSK3 channels (Homo sapiens, UniProt Q9UGI6)
T1 construct: expressed in transfected cells; host or cells: HEK293
Assay: Whole-cell patch-clamp recording of ionic current through SK channels (subtype 3) in HEK293 cells expressing hSK3
Type: cell-based
Experimental: The ionic current through small-conductance Ca^2+-activated K^+ channels (SK channels, subtype 3) is recorded using the whole-cell configuration of the patch-clamp technique in a classic patch-clamp set-up using HEK293 tissue culture cells expressing hSK3 channels as described in e.g. WO 2006/100212.
The SC100 value determined is defined as the Stimulating Concentration required for increasing the baseline current by 100%. The SC100 value determined for Compound 6.5 of the invention was 0.3 μM, which is an indication of its SK3 activating properties.

Structure (SMILES): Cc1cc(C)n(-c2nc(N(C(=O)OCC(C)C)c3ccc(Cl)cc3)c3ncn(C)c3n2)n1 [Compound 6.5, (4-Chloro-Phenyl)-[2-(3,5-Dimethyl-Pyrazol-1-yl)-9-Methyl-9H-Purin-6-yl]-Carbamic Acid Isobutyl Ester]
- SC100 (Stimulating Concentration required for increasing the baseline current by 100%): 0.3 µM
